Measurements reported in patent US8680114B2, “AKT protein kinase inhibitors” (Array Biopharma, Inc., priority 2003, dated 2014).

Biological target: full-length human recombinant active AKT-1 (Homo sapiens, UniProt P31749)
Experiment: AKT-1 kinase assay (IMAP fluorescence polarization, phosphorylation of fluorescently-labeled peptide)
Type: biochemical
Conditions: AKT-1 IMAP assay, qualitative statement, values not given
Source text: The activity of the compounds described in the present invention may be determined by the following procedure: This procedure describes a kinase assay that measures the phosphorylation of a fluorescently-labeled peptide by full-length human recombinant active AKT-1 by fluorescent polarization using a commercially available IMAP kit.
The assay materials come from an IMAP AKT Assay Bulk Kit, product #R8059, from Molecular Devices, Sunnyvale, Calif. The kit materials include an IMAP Reaction Buffer (5×): The diluted 1×IMAP Reaction Buffer contains 10 mM Tris-HCl, pH 7.2, 10 mM MgCl2, 0.1% BSA, 0.05% NaN3. DTT is routinely added to a final concentration of 1 mM immediately prior to use.
Also included are IMAP Binding Buffer (5×), and IMAP Binding Reagent. The Binding Solution is prepared as a 1:400 dilution of IMAP Binding Reagent into 1×IMAP Binding Buffer.
Fluorescein-labeled AKT Substrate (Crosstide), having the sequence (F1)-GRPRTSSFAEG. A stock solution of 20 μM is made up in 1×IMAP Reaction Buffer.
The plates used include a Costar 3657 ([…] made of polypropylene and having a white, v-bottom) that is used for compound dilution and for preparing the compound-ATP mixture. The assay plate was the Packard ProxyPlate™-384 F.
The AKT-1 used was made from full-length, human recombinant AKT-1 that is activated with PDK1 and MAP kinase 2.
The assay procedure starts the preparation of stock solutions of compounds at 10 mM in DMSO. The stock solutions and the control compound are serially diluted 1:2 nine times into DMSO (10 μL of compound+10 μL of DMSO) to give 50× dilution series over the desired dosing range. […]
The assay is initiated by the addition of 2.5-μL aliquots of a solution containing 200 nM of fluorescently-labeled peptide substrate and 4 nM AKT-1. […] The reaction is then quenched by the addition of 15 μL of Binding Solution, centrifuged again and incubated for an additional 30 minutes at ambient temperature prior to reading on a Victor 1420 Multilabel HTS Counter configured to measure fluorescence polarization.

Sequence of full-length human recombinant active AKT-1 (P31749 whole entry): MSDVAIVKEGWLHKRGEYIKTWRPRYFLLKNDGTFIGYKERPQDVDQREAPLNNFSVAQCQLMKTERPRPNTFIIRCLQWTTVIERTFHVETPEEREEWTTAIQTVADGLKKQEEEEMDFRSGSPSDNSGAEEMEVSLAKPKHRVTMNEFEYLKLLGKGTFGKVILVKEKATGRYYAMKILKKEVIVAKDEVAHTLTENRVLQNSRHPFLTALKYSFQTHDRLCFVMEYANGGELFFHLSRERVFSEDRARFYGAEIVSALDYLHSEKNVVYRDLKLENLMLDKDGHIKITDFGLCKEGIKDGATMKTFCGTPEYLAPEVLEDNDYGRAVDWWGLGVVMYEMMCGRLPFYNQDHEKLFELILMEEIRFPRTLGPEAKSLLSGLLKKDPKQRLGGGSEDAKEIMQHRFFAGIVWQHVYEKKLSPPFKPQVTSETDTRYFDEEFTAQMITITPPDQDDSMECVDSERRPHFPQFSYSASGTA

| activity for inhibiting AKT protein kinases | SMILES |
| --- | --- |
| showed activity | N[C@H](Cc1ccc2ccccc2c1)C(=O)N1CCN(c2ncnc3ccccc23)CC1 [Example 11, (2R)-2-Amino-3-(2-naphthyl)-1-(4-quinazolin-4-yl-piperazin-1-yl)-propan-1-one] |
| showed activity | N[C@H](Cc1ccc(Cl)cc1)C(=O)N1CCN(c2ncnc3ccccc23)CC1 [Example 9, (2R)-2-Amino-3-(4-chlorophenyl)-1-(4-quinazolin-4-yl-piperazin-1-yl)-propan-1-one] |
| showed activity | N[C@H](Cc1ccc(Cl)cc1)C(=O)N1CCN(c2ccnc3ccsc23)CC1 [Example 24, (2R)-2-amino-3-(4-chlorophenyl)-1-(4-thieno[3,2,b]pyridin-7-yl-piperazin-1-yl)-propan-1-one dihydochloride] |
